The test system of one test is SFV-Rluc. The following applies: Supplementary Table 2, moderately active compounds (25 - 60% remaining), primary screen at 50 µM.
Take `C[C@@H]1O[C@@H](OC[C@H]2O[C@@H](Oc3c(-c4ccc(O)c(O)c4)oc4cc(O)cc(O)c4c3=O)[C@H](O)[C@@H](O)[C@@H]2O)[C@H](O)[C@H](O)[C@H]1O` [NC-090]: the “% left (remaining SFV replication)” value came to 44.1%.

For the molecule `C=CCC(=NOS(=O)(=O)[O-])SC1OC(CO)C(O)C(O)C1O.O.[K+]` (centres unmarked) [NC-096], the “% left (remaining SFV replication)” value worked out at 47.6%. As to `Cc1ccc(C(C)C)c(O)c1` [NC-101], the “% left (remaining SFV replication)” value was determined as 42.0%.

With `COc1cc(C(=O)O)cc(OC)c1OC` [NC-102], the “% left (remaining SFV replication)” value came to 34.1%. `COc1cc(C=O)ccc1O` [NC-106]: the “% left (remaining SFV replication)” value was determined as 47.9%. With `CCCCNc1ccc(C(=O)OCCN(C)C)cc1.Cl` [PC-032], the “% left (remaining SFV replication)” value stood at 45.2%. Turning to `NC(=O)N1c2ccccc2C=Cc2ccccc21` [PC-037], the “% left (remaining SFV replication)” value stood at 57.3%. With `CNC1=Nc2ccc(Cl)cc2C(c2ccccc2)=[N+]([O-])C1` [PC-041], the “% left (remaining SFV replication)” value was determined as 54.3%.

The test is the same for the next values; noted with them: primary screening of chemical libraries; compounds tested at 50 µM.
On to `Oc1ccc(C=Cc2cc(O)cc(O)c2)cc1` [NC-086], for which the “SFV replication % left” value was determined as 103.4%. Turning to `COc1cc(O)c2c(=O)c(O)c(-c3ccc(O)c(O)c3)oc2c1` [NC-087], the “SFV replication % left” value is listed as 119.1%.

Regarding `O=C(/C=C/c1ccc(O)c(O)c1)O[C@H](Cc1ccc(O)c(O)c1)C(=O)O` [NC-088], the “SFV replication % left” value is 120.3%. Turning to `C[C@@H]1O[C@@H](OC[C@H]2O[C@@H](Oc3c(-c4ccc(O)c(O)c4)oc4cc(O)cc(O)c4c3=O)[C@H](O)[C@@H](O)[C@@H]2O)[C@H](O)[C@H](O)[C@H]1O` [NC-090], the “SFV replication % left” value was 44.1%.

`OCc1ccccc1O[C@@H]1O[C@H](CO)[C@@H](O)[C@H](O)[C@H]1O` [NC-091]: the “SFV replication % left” value is 104.4%. The same measure, in the same setting: to `O=C(O)c1ccccc1O` [NC-092] belongs 69.1%. Regarding `COc1cc(C2Oc3cc([C@H]4Oc5cc(O)cc(O)c5C(=O)[C@@H]4O)ccc3OC2CO)ccc1O` (some centres unmarked) [NC-093], the “SFV replication % left” value is listed as 22.4%. For `COc1cc(/C=C/C(=O)O)cc(OC)c1O` [NC-095], the “SFV replication % left” value is given as 22.0%. Take `C=CCC(=NOS(=O)(=O)[O-])SC1OC(CO)C(O)C(O)C1O.O.[K+]` (centres unmarked) [NC-096]: the “SFV replication % left” value is 47.6%. In the case of `COc1cc(C(=O)O)cc(OC)c1O` [NC-097], the “SFV replication % left” value was 61.1%. As for `CC[C@@]1(O)C(=O)OCc2c1cc1n(c2=O)Cc2cc3ccccc3nc2-1` [NC-099], the “SFV replication % left” value came out at 87.7%. For `O=C1c2c(O)cc(O)cc2O[C@H](c2ccc(O)c(O)c2)[C@H]1O` [NC-100], the “SFV replication % left” value was 93.7%. For the molecule `Cc1ccc(C(C)C)c(O)c1` [NC-101], the “SFV replication % left” value came out at 42.0%. Same read-out and setting: to `COc1cc(C(=O)O)cc(OC)c1OC` [NC-102] belongs 34.0%. As for `Cc1c(C)c2c(c(C)c1O)CCC(C)(C(=O)O)O2` (centres unmarked) [NC-103], the “SFV replication % left” value stood at 76.9%. Still for that read-out and setting: under `O=c1ccc2ccc(O)cc2o1` [NC-104] stands 93.1%; under `COc1cc(C(=O)O)ccc1O` [NC-105], 53.4%; under `COc1cc(C=O)ccc1O` [NC-106], 47.9%. For `Cc1cc(C(C)(C)C)c(O)c(C(C)(C)C)c1` [NC-107], the “SFV replication % left” value is 72.6%. For `Cc1cc(=O)oc2cc(O)ccc12` [NC-108], the “SFV replication % left” value is given as 90.9%. Turning to `COc1cc2oc(=O)ccc2cc1O` [NC-109], the “SFV replication % left” value worked out at 120.6%. In the case of `COc1cc2ccc(=O)oc2c(O)c1O` [NC-110], the “SFV replication % left” value is reported as 103.6%. On to `COc1cc2ccc(=O)oc2c(O)c1OC` [NC-111], for which the “SFV replication % left” value worked out at 77.8%. Regarding `O=c1ccc2ccc(O)c(O)c2o1` [NC-112], the “SFV replication % left” value turned out to be 90.6%. As for `COc1ccc2ccc(=O)oc2c1O` [NC-113], the “SFV replication % left” value is reported as 105.6%. In the case of `COc1cc2ccc(=O)oc2cc1O` [NC-114], the “SFV replication % left” value turned out to be 81.9%. In the case of `O=c1ccc2ccc(O)cc2o1` [NC-115], the “SFV replication % left” value is on record as 78.4%. As to `Cc1ccc2oc(=O)ccc2c1` [NC-116], the “SFV replication % left” value is 83.6%. For `O=c1cc(O)c2ccccc2o1` [NC-117], the “SFV replication % left” value was 100.2%. As to `CC(=O)CC(c1ccccc1)c1c(O)c2ccccc2oc1=O` (centres unmarked) [NC-118], the “SFV replication % left” value stood at 79.5%. On to `COc1ccc2oc(=O)cc(C)c2c1` [NC-119], for which the “SFV replication % left” value is given as 66.6%. The same measure, in the same setting: to `COc1ccc2c(C)cc(=O)oc2c1` [NC-120] belongs 72.2%.

With `Cc1cc(=O)oc2cc(O)cc(O)c12` [NC-122], the “SFV replication % left” value amounted to 66.7%.

Turning to `CN1CCCCC1CCN1c2ccccc2Sc2ccc([S+](C)[O-])cc21` (centres unmarked) [NC-123], the “SFV replication % left” value was found to be 131.1%. Consider `COc1ccc2ccc(=O)oc2c1` [NC-124], for which the “SFV replication % left” value is 53.2%. As for `O=C(O)c1cc2cc(Br)cc(Br)c2oc1=O` [NC-125], the “SFV replication % left” value is on record as 67.4%. Regarding `O=c1ccc2cc(O)c(O)cc2o1` [NC-126], the “SFV replication % left” value worked out at 103.6%.

Take `O.O.O.O=c1ccc2cc(O[C@@H]3O[C@H](CO)[C@@H](O)[C@H](O)[C@H]3O)c(O)cc2o1.O=c1ccc2cc(O[C@@H]3O[C@H](CO)[C@@H](O)[C@H](O)[C@H]3O)c(O)cc2o1` [NC-127]: the “SFV replication % left” value stood at 95.0%. The same measure, in the same setting: under `COc1cc(OC)c2ccc(=O)oc2c1` [NC-128] stands 67.4%; under `COc1c2occc2cc2ccc(=O)oc12` [NC-129], 86.7%. As to `O=c1oc2c3c4c(cc2c2c1CCC2)CCCN4CCC3` [NC-130], the “SFV replication % left” value amounted to 82.1%.

For the molecule `O=c1cc(C(F)(F)F)c2cc3c4c(c2o1)CCCN4CCC3` [NC-131], the “SFV replication % left” value was found to be 52.6%. In the case of `CC(=O)Nc1ccc(O)cc1` [PC001-], the “SFV replication % left” value came to 63.5%. For `CC(=O)Nc1ccccc1` [PC-002], the “SFV replication % left” value is recorded as 57.3%. With `CC(=O)Nc1nnc(S(N)(=O)=O)s1` [PC-003], the “SFV replication % left” value is reported as 71.3%.

For `O=C1NC2NC(=O)NC2N1` (centres unmarked) [PC-004], the “SFV replication % left” value amounted to 55.2%. Take `CC(=O)NS(=O)(=O)c1ccc(N)cc1` [PC-005]: the “SFV replication % left” value is given as 63.2%. Consider `N[C@@H](Cc1ccc(O)c(O)c1)C(=O)O` [PC-007], for which the “SFV replication % left” value is 43.6%.

In the case of `C=CCC1(CC=C)C(=O)NC(=O)NC1=O` [PC-008], the “SFV replication % left” value was found to be 45.6%.

Consider `C=CC[C@]1(O)CC[C@H]2[C@@H]3CCC4=CCCC[C@@H]4[C@H]3CC[C@@]21C` [PC-009], for which the “SFV replication % left” value was 37.2%.

`Nc1ccc(C(=O)O)cc1` [PC-010]: the “SFV replication % left” value worked out at 56.5%. As for `Cc1c(N)c(=O)n(-c2ccccc2)n1C` [PC-011], the “SFV replication % left” value came out at 51.6%. `CCC(CN(C)C)(CN(C)C)OC(=O)c1ccccc1.Cl` [PC-012]: the “SFV replication % left” value is 43.4%. Still for that read-out and setting: to `C[C@@]12CCC[C@H]1[C@@H]1CC[C@H]3CCCC[C@]3(C)[C@H]1CC2` [PC-013] belongs 53.0%.

As to `Cl.c1ccc(CN(CC2=NCCN2)c2ccccc2)cc1` [PC-014], the “SFV replication % left” value is given as 38.7%. Turning to `Cc1cc(=O)n(-c2ccccc2)n1C` [PC-015], the “SFV replication % left” value is listed as 60.1%.

As to `Br.COC(=O)C1=CCCN(C)C1` [PC-016], the “SFV replication % left” value was 83.6%. As to `CC(C)NCC(O)COc1ccc(CC(N)=O)cc1` (centres unmarked) [PC-017], the “SFV replication % left” value is recorded as 44.2%. For the molecule `C[N+]1(C)[C@@H]2CC[C@H]1C[C@@H](OC(=O)C(CO)c1ccccc1)C2.O=[N+]([O-])[O-]` (some centres unmarked) [PC-018], the “SFV replication % left” value amounted to 46.8%. In the case of `CCCCNCC(O)c1ccc(O)cc1` (centres unmarked) [PC-019], the “SFV replication % left” value came to 67.1%. Still for that read-out and setting: to `CCC1(CC)C(=O)NC(=O)NC1=O` [PC-020] belongs 64.7%; to `O=C1CC(=O)NC(=O)N1` [PC-021], 48.8%; to `CCOC(=O)c1ccc(N)cc1` [PC-023], 43.4%. `CN(Cc1cc(Br)cc(Br)c1N)C1CCCCC1.Cl` [PC-024]: the “SFV replication % left” value came to 64.8%.

In the case of `CCCCNC(=O)c1ccc(Cl)cc1O` [PC-025], the “SFV replication % left” value came out at 49.6%.

Consider `CC(C)(C)NCC(O)COc1ccccc1C#N` (centres unmarked) [PC-026], for which the “SFV replication % left” value is 40.7%. Turning to `CC(C)(C)NC[C@H](O)COc1cccc2c1CCCC2=O` [PC-027], the “SFV replication % left” value worked out at 59.6%. Regarding `CS(=O)(=O)OCCCCOS(C)(=O)=O` [PC-028], the “SFV replication % left” value is 51.8%.

Take `CCCCC1(CC)C(=O)NC(=O)NC1=O` [PC-029]: the “SFV replication % left” value is 45.2%.

Turning to `CCC(C)NCC(O)c1ccc2c(c1)CCCC2` (centres unmarked) [PC-030], the “SFV replication % left” value is 73.1%.

For `CCCCOC(=O)c1ccc(N)cc1` [PC-031], the “SFV replication % left” value is 76.6%. With `CCCCNc1ccc(C(=O)OCCN(C)C)cc1.Cl` [PC-032], the “SFV replication % left” value was determined as 45.4%. In the case of `CCCCNC(=O)NS(=O)(=O)c1ccc(N)cc1` [PC-033], the “SFV replication % left” value was 83.9%. Regarding `CCCCNc1ccc(C(=O)OCCN(C)C)cc1.Cl` [PC-034], the “SFV replication % left” value amounted to 63.8%. On to `CC(C)(CO)[C@@H](O)C(=O)NCCC(=O)[O-].CC(C)(CO)[C@@H](O)C(=O)NCCC(=O)[O-].[Ca+2]` [PC-035], for which the “SFV replication % left” value came out at 67.9%. Take `CC12CCC(CC1=O)C2(C)C` (centres unmarked) [PC-036]: the “SFV replication % left” value was found to be 83.9%.

For the molecule `NC(=O)N1c2ccccc2C=Cc2ccccc21` [PC-037], the “SFV replication % left” value came to 57.2%. Still for that read-out and setting: under `CC(C)(C)NCC(O)COc1cccc2c1CCC(=O)N2.Cl` (centres unmarked) [PC-038] stands 67.2%; under `CCCCCCCCCCCCCCCC[N+](C)(C)C.[Br-]` [PC-039], 75.0%; under `O=C(N[C@H](CO)[C@H](O)c1ccc([N+](=O)[O-])cc1)C(Cl)Cl` [PC-040], 73.8%.

`CNC1=Nc2ccc(Cl)cc2C(c2ccccc2)=[N+]([O-])C1` [PC-041]: the “SFV replication % left” value came out at 54.3%. Regarding `CC(C)(O)C(Cl)(Cl)Cl` [PC-042], the “SFV replication % left” value was found to be 84.2%. On to `CN1C(=O)CN=C(c2ccc(Cl)cc2)c2cc(Cl)ccc21` [PC-043], for which the “SFV replication % left” value is listed as 64.0%.

As for `CCN(CC)CCCC(C)Nc1ccnc2cc(Cl)ccc12.O=P(O)(O)O.O=P(O)(O)O` (centres unmarked) [PC-044], the “SFV replication % left” value amounted to 12.2%. In the case of `NS(=O)(=O)c1cc2c(cc1Cl)N=CNS2(=O)=O` [PC-045], the “SFV replication % left” value came to 90.3%. On to `CN(C)CC/C=C1/c2ccccc2Sc2ccc(Cl)cc21.Cl` [PC-047], for which the “SFV replication % left” value is 90.3%. Regarding `O=C(O)c1cc(-c2ccccc2)nc2ccccc12` [PC-048], the “SFV replication % left” value stood at 65.1%.
